Each molecule was assayed against T1, p53 Y220C (Homo sapiens, UniProt P04637, Y220C) (assay: In vitro DNA binding activity assay (HTRF / TR-FRET): stabilization of p53 Y220C and increase of its DNA binding activity). Details: recombinant His-tagged p53 Y220C DNA binding domain (aa 94-312), biotin-labeled consensus DNA, incubated at 27° C. or 29° C. for 60 min.
T1 construct: The recombinant protein was a truncation mutant containing only amino acids 94-312 of p53; made in house; host or cells: E. coli
Format: biochemical
Procedure, shortened: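 Test compounds, diluted 3-fold in DMSO from 4.5 mM stocks, were incubated with bacterially expressed His-tagged p53 Y220C at room temperature for 15 min, and after a further step for 20 min. DNA binding was detected by time-resolved FRET between APC and europium labels. SC150 marks the concentration increasing binding by 50%.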

T1 sequence (P04637 94-312, change not shown): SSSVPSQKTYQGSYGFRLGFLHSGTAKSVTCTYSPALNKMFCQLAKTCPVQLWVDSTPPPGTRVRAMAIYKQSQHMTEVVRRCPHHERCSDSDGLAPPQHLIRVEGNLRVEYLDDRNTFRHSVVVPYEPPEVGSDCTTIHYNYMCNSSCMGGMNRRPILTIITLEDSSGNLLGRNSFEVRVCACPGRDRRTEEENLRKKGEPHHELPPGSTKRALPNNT

SMILES | SC150 (concentration of the compound required to increase the DNA binding activity by 50%)
CNC(=O)c1ccc(NCC#Cc2cc3c(N[C@H]4CC[C@H](N5CC6(CCCOC6)C5)CC4)cccc3n2CC(F)(F)F)c(OC)c1 [Compound 318A, 3-methoxy-N-methyl-4-{[3-(4-{[(1R,4R)-4-{6-oxa-2-azaspiro[3.5]nonan-2-yl}cyclohexyl]amino}-1-(2,2,2-trifluoroethyl)-1H-indol-2-yl)prop-2-yn-1-yl]amino} benzamide] | + (+ = 0 μM ≤ SC150 < 0.05 μM)
COc1cc(C(=O)OCC(C)O)ccc1NCC#Cc1cc2c(N[C@H]3CCN(C)C[C@H]3F)cccc2n1CC(F)(F)F (mixture of isomers) [Compound 806A, rac-2-hydroxypropyl 4-{[3-(4-{[(3R,4S)-3-fluoro-1-methylpiperidin-4-yl]amino}-1-(2,2,2-trifluoroethyl)-1H-indol-2-yl)prop-2-yn-1-yl]amino}-3-methoxybenzoate] | + (+ = 0 μM ≤ SC150 < 0.05 μM)
CNC(=O)c1ccc(NCC#Cc2cc3c(N[C@H]4CC[C@H](N5CC(S(C)(=O)=O)C5)CC4)cccc3n2CC(F)(F)F)c(OC)c1 [Compound 192A, 3-methoxy-N-methyl-4-{[3-(4-{[(1R,4R)-4-(3-methanesulfonyl-azetidin-1-yl)cyclo-hexyl]amino}-1-(2,2,2-trifluoroethyl)-1H-indol-2-yl)prop-2-yn-1-yl]amino}benzamide] | + (+ = 0 μM ≤ SC150 < 0.05 μM)
COC(=O)c1ccc(NCC#Cc2cc3c(N[C@H]4CCN(C)C[C@@H]4F)cccc3n2CC(F)(F)F)c(OC)c1 (racemic) [Compound 777A, rac-Methyl 4-{[3-(4-{[(3R,4R)-3-fluoro-1-methylpiperidin-4-yl]amino}-1-(2,2,2-trifluoroethyl)-1H-indol-2-yl)prop-2-yn-1-yl]amino}-3-methoxybenzoate] | + (+ = 0 μM ≤ SC150 < 0.05 μM)
COc1cc(S(=O)(=O)N(C)C)ccc1NCC#Cc1cc2c(NC3CCN(C(C)=O)CC3)cccc2n1CC(F)(F)F [Compound 755A, 4-[(3-{4-[(1-acetylpiperidin-4-yl)amino]-1-(2,2,2-trifluoroethyl)-1H-indol-2-yl}prop-2-yn-1-yl)amino]-3-methoxy-N,N-dimethylbenzene-1-sulfonamide] | + (+ = 0 μM ≤ SC150 < 0.05 μM)
COCC(O)CN1CCC(Nc2cccc3c2cc(C#CCNc2ccc(S(C)(=O)=O)cc2)n3CC(F)(F)F)C1 (stereo not drawn) [Compound 457A, l-{3-[(2-{3-[(4-methanesulfonylphenyl)amino]prop-1-yn-1-yl}-1-(2,2,2-trifluoroethyl)-1H-indol-4-yl)amino]pyrrolidin-1-yl}-3-methoxypropan-2-ol] | ++ (++ = 0.05 μM ≤ SC150 < 0.1 μM)
COc1cc(C(N)=O)c(F)cc1NCC#Cc1cc2c(N[C@H]3CC[C@H](N(C)C)CC3)cccc2n1CC(F)(F)F [Compound 132A, 4-((3-(4-(((1R,4R)-4-(dimethylamino)cyclohexyl)amino)-1-(2,2,2-trifluoroethyl)-1H-indol-2-yl)prop-2-yn-1-yl)amino)-2-fluoro-5-methoxybenzamide] | + (+ = 0 μM ≤ SC150 < 0.05 μM)
COc1cc(S(C)(=O)=O)ccc1NCC#Cc1cc2c(N[C@H]3CC[C@H](N4CC(S(C)(=O)=O)C4)CC3)cccc2n1CC(F)(F)F [Compound 188A, 2-{3-[(4-methane-sulfonyl-2-methoxy-phenyl)amino]prop-1-yn-1-yl}-N-[(1R,4R)-4-(3-methanesulfonyl-azetidin-1-yl)cyclohexyl]-1-(2,2,2-trifluoroethyl)-1H-indol-4-amine] | + (+ = 0 μM ≤ SC150 < 0.05 μM)
COc1cc(S(=O)(=O)N(C)C)ccc1NCC#Cc1cc2c(NC3CCOCC3)cccc2n1CC(F)(F)F [Compound 999A, 3-methoxy-N,N-dimethyl-4-[(3-{4-[(oxan-4-yl)amino]-1-(2,2,2-trifluoroethyl)-1H-indol-2-yl}prop-2-yn-1-yl)amino]benzene-1-sulfonamide] | + (+ = 0 μM ≤ SC150 < 0.05 μM)
CN(C)[C@H]1CC[C@H](Nc2cccc3c2cc(C#CCNc2ccc(S(C)(=O)=O)cc2OCCO)n3CC(F)(F)F)CC1 [Compound 87A, 2-(5-methanesulfonyl-2-{[3-(4-{[(1R,4R)-4-(dimethylamino)cyclohexyl]amino}-1-(2,2,2-trifluoroethyl)-1H-indol-2-yl)prop-2-yn-1-yl]amino}phenoxy)ethan-1-ol] | + (+ = 0 μM ≤ SC150 < 0.05 μM)
COc1cc(S(C)(=O)=O)ccc1NCC#Cc1cc2c(NC3CCC(=O)CC3)cccc2n1CC(F)(F)F [Compound 66A, 4-[(2-{3-[(4-methane-sulfonyl-2-methoxy-phenyl)amino]prop-1-yn-1-yl}-1-(2,2,2-trifluoroethyl)-1H-indol-4-yl)amino]cyclo-hexan-1-one] | + (+ = 0 μM ≤ SC150 < 0.05 μM)
CN(C)[C@H]1CC[C@H](Nc2cccc3c2cc(C#CCNc2ccc(S(N)(=O)=O)cc2OCC#N)n3CC(F)(F)F)CC1 [Compound 123A, 3-(cyanomethoxy)-4-{[3-(4-{[(1R,4R)-4-(dimethylamino)cyclohexyl]amino}-1-(2,2,2-trifluoroethyl)-1H-indol-2-yl)prop-2-yn-1-yl]amino}benzene-1-sulfonamide] | + (+ = 0 μM ≤ SC150 < 0.05 μM)
COc1cc(C(C)(C)C#N)ncc1NCC#Cc1cc2c(NC3CCN(CC(O)CO)CC3)cccc2n1CC(F)(F)F (stereo not shown) [Compound 554A, 2-(5-{[3-(4-{[1-(2,3-dihydroxypropyl)piperidin-4-yl]amino}-1-(2,2,2-trifluoroethyl)-1H-indol-2-yl)prop-2-yn-1-yl]amino}-4-methoxypyridin-2-yl)-2-methylpropanenitrile] | + (+ = 0 μM ≤ SC150 < 0.05 μM)
CNC(=O)c1ccc(NCC#Cc2cc3c(NC4CCN(CC(O)COC)CC4)cccc3n2CC(F)(F)F)c(OCCC#N)c1 (stereo not shown) [Compound 659A, 3-(2-cyanoethoxy)-4-{[3-(4-{[1-(2-hydroxy-3-methoxypropyl)piperidin-4-yl]amino}-1-(2,2,2-trifluoroethyl)-1H-indol-2-yl)prop-2-yn-1-yl]amino}-N-methylbenzamide] | + (+ = 0 μM ≤ SC150 < 0.05 μM)
COc1cc(S(C)(=O)=O)ccc1NCC#Cc1cc2c(N[C@@H]3CCN(C(=O)CN)C[C@@H]3F)cccc2n1CC(F)(F)F [Compound 893A] | + (+ = 0 μM ≤ SC150 < 0.05 μM)
COc1cc(S(C)(=O)=O)ccc1NCC#Cc1cc2c(NC3CCN(CCC#N)CC3)cccc2n1CC(F)(F)F [Compound 686A] | + (+ = 0 μM ≤ SC150 < 0.05 μM)
COCC(O)CN1CCCC(Nc2cccc3c2cc(C#CCNc2ccc(S(C)(=O)=O)cc2OC)n3CC(F)(F)F)CC1 (stereo not shown) [Compound 989A, 1-{4-[(2-{3-[(4-methanesulfonyl-2-methoxyphenyl)amino]prop-1-yn-1-yl}-1-(2,2,2-trifluoroethyl)-1H-indol-4-yl)amino]azepan-1-yl}-3-methoxypropan-2-ol] | + (+ = 0 μM ≤ SC150 < 0.05 μM)
COc1cc(S(N)(=O)=O)ccc1NCC#Cc1cc2c(N[C@H]3CC[C@H](N4CC(S(C)(=O)=O)C4)CC3)cccc2n1CC(F)(F)F [Compound 190A, 3-methoxy-4-{[3-(4-{[(1R,4R)-4-(3-methanesulfonyl-azetidin-1-yl)cyclo-hexyl]amino}-1-(2,2,2-trifluoroethyl)-1H-indol-2-yl)prop-2-yn-1-yl]amino}benzene-1-sulfonamide] | + (+ = 0 μM ≤ SC150 < 0.05 μM)
CCC(=O)NS(=O)(=O)c1ccc(NCC#Cc2cc3c(N[C@H]4CC[C@@H](N(C)C)CC4)cccc3n2CC(F)(F)F)c(OC)c1 [Compound 86A] | + (+ = 0 μM ≤ SC150 < 0.05 μM)
COc1cc(C(N)=O)ccc1NCC#Cc1cc2c(N[C@@H]3C[C@@H](C)O[C@@H](C)C3)cccc2n1CC(F)(F)F [Compound 1030A, 3-methoxy-4-{[3-(4-{[(2R,4S,6S)-2,6-dimethyloxan-4-yl]amino}-1-(2,2,2-trifluoroethyl)-1H-indol-2-yl)prop-2-yn-1-yl]amino}benzamide] | ++ (++ = 0.05 μM ≤ SC150 < 0.1 μM)
COc1cc(S(=O)(=O)NC(C)=O)ccc1NCC#Cc1cc2c(N[C@H]3CC[C@H](N4CC5(COC5)C4)CC3)cccc2n1CC(F)(F)F [Compound 208A, N-(3-methoxy-4-{[3-(4-{[(1R,4R)-4-{2-oxa-6-azaspiro[3.3]heptan-6-yl}cyclohexyl]amino}-1-(2,2,2-trifluoro-ethyl)-1H-indol-2-yl)prop-2-yn-1-yl]amino}benzene-sulfonyl)acetamide] | + (+ = 0 μM ≤ SC150 < 0.05 μM)
COc1cc(S(C)(=O)=O)ccc1NCC#Cc1cc2c(NC3CCN(CC(COC(=O)C(C)C)OC(=O)C(C)C)CC3)cccc2n1CC(F)(F)F (stereo not shown) [Compound 588A, 1-{4-[(2-{3-[(4-methanesulfonyl-2-methoxyphenyl)amino]prop-1-yn-1-yl}-1-(2,2,2-trifluoroethyl)-1H-indol-4-yl)amino]piperidin-1-yl}-3-[(2-methylpropanoyl)oxy]propan-2-yl 2-methylpropanoate] | +++ (+++ = 0.1 μM ≤ SC150 < 0.2 μM)

— patent US12428406B2 (PMV Pharmaceuticals, Inc., priority 2019, dated 2025)
